Data published in US7125902B2, “Methods, compounds, and diagnostics for cancer treatment” (priority 2004, dated 2006).

What was measured:
[1] = system: C6 (Rat Glialtumor Cell or CCL-107) Cell Line; assay: MTT colorimetric assay for cellular viability on C6 cells; type: cell-based; conditions: 48-h incubation
Experimental: Cell lines (C6 and Hep G2) were obtained from the Bioresource Collection and Research Center. All cell culture media and supplements were purchased from Invitrogen, Co. (GIBCO™, Gland Island, N.Y.) unless otherwise specified. All cells were grown in a humid atmosphere of 95% air and 5% CO2 at 37° C. Cell lines were maintained under standard conditions in culture media recommended by the American Type Culture Collection (ATCC), unless otherwise specified. C6 cells were grown in 82.5% Ham's F-10 medium, 15% horse serum and 2.5% FBS. Hep G2 were cultured in 90% MEM (Eagle) with non-essential amino acids and Earle's BSS amd 10% FBS.
All compounds were tested for inhibition of anchorage-dependent tumor cell growth using MTT assay. All compounds were individually solubilized in DMSO and diluted into appropriate growth medium at 2-fold desired final assay concentration. In assays, cells were seeded into 96-well plates and allowed to adhere for 24 h before drugs were introduced. Following a 48-h incubation, compounds and medium were removed by flicking, and each well was treated with 100 μl of 500 μg/ml MTT [3-(4,5-dimethylthiazol-2-yl)-2,5-diphenyltetrazolium bromide] in culture medium. Following a 4-h incubation period to allow metabolism of MTT by mitochondrial dehydrogenases of viable cells to form an insoluble formazan product, the crystals were dissolved in 100 μL of acid-SDS (0.01 N HCl in 10% SDS) by incubating the plate overnight. Absorbance, as a measure of cell viability, was read the following day in an ELISA plate reader at a wavelength of 550 nm. IC50 values were obtained by a linear regression analysis of percentage absorbance vs. log drug concentration.

Male ICR mice = assay: Acute toxicity study, determination of LD50 values; type: in vivo; conditions: for LD50 / Survival at 2,000 mg/Kg: male ICR mice; for LD50: single intraperitoneal injection, observed for three days; for Acute symptoms observed: mouse, in vivo, ip; for Survival at 2,000 mg/Kg: i.p., 2,000 mg/Kg, three-day observation
Experimental: (§1) Leflunomide, its metabolite (A77 1726), and several isoxazole derivatives were chosen for the acute toxicity study. Male ICR mice were used for the intraperitoneal injection of each compound at different doses according to the following procedure: Small male ICR mice are chosen, each weighing 17–23 grams. They are equally classified at random into individual groups, 3–5 mice per group. A predetermined dose of each selected compound in minimum DMSO/liquid paraffin is injected once intraperitoneally to mice in each group. Toxic reaction is observed for three days, then the acute half lethal dose (LD50) is determined.

[2] = Acute toxicity study, determination of LD50 values; type: in vivo; conditions: male, ICR, mouse, in vivo, ip
Experimental: as §1

[3] = system: HT29 (adenocarcinoma of the colon); assay: SRB cell proliferation assay on HT-29 cells; type: cell-based, human; conditions: for Cell viability, Reading (avg of 3): HT-29, SRB reading at 515 nm, 5d exposure
Experimental: The cell lines used were HT29 (adenocarcinoma of the colon). The tumor cells were grown at 37° C. in a humidified atmosphere (5% CO2) as monolayer cultures in RPMI 1640 medium supplemented with 10% FCS. Cells were trypsinized upon passage and maintained routinely.
UTL-5b and UTL-5 were dissolved in DMSO as 4 mM stock solutions and then further diluted in 1% carboxymethyl cellulose.
The SRB assay is routinely employed to measure cell proliferation by the US-NCI 60 cell line screen. Exponentially growing cells were harvested by trypsination, counted and seeded into 96 well plates (2.000 cells/well). […] Total protein mass was determined after 5d of continuous drug exposure by addition of Sulforhodamine B (0.4%) solution. Readings were read at 515 nm, as cell viability, and IC50 values were estimated based on the results.

Row | Compound | IC50 [1] [µM] | LD50 (Male ICR mice) | Acute symptoms observed (Male ICR mice) | further results
1 | C/C(O)=C(\C#N)C(=O)Nc1ccc(C(F)(F)F)cc1 [A77 1726, reference compound] | 0.159 | 200 mg/kg | Cyanosis and deep necrosis | –
2 | Cc1oncc1C(=O)Nc1ccc(C(F)(F)F)cc1 [Leflunomide, N-(4-trifluoromethylphenyl)-4-carboxamidyl-5-methylisoxazole, reference compound] | – | – | Cyanosis and deep necrosis | IC50 ([1]; Rattus norvegicus): 0.162 µM; LD50 at 3 days [2]: 250 mg/kg
3 | Cc1cc(C(=O)Nc2ccccc2)no1 [UTL-5a] | 1.37 | >2,000 mg/Kg | agitation | Survival at 2,000 mg/Kg (Male ICR mice): all mice were alive
4 | Cc1cc(C(=O)Nc2cccc(Cl)c2)no1 [UTL-5c] | 0.163 | – | – | –
5 | Cc1cc(C(=O)Nc2ccc(Cl)cc2)no1 [UTL-5d] | 0.81 | 1,800 mg/Kg | – | Activity in human colon cancer cell line HT29 (in words) ([3]; HT29, SRB assay): very good activity; Cell viability, Reading (avg of 3) ([3]; Conc. 0.001 μM): 1.238; Cell viability, Reading (avg of 3) ([3]; Conc. 0.002 μM): 1.014; Cell viability, Reading (avg of 3) ([3]; Conc. 0.01 μM): 0.886; Cell viability, Reading (avg of 3) ([3]; Conc. 0.05 μM): 0.914; Cell viability, Reading (avg of 3) ([3]; Conc. 0.1 μM): 0.864; Cell viability, Reading (avg of 3) ([3]; Conc. 0.5 μM): 0.893; Cell viability, Reading (avg of 3) ([3]; Conc. 1 μM): 0.436; Cell viability, Reading (avg of 3) ([3]; Conc. 10 μM): 0.314; Cell viability, Reading (avg of 3) ([3]; Conc. 50 μM): 0.164; Cell viability, Reading (avg of 3) ([3]; Conc. 100 μM): 0.13; IC50 ([3]; HT-29 cells, SRB assay, 5d continuous exposure, estimated from readings): 0.7 µM
6 | Cc1cc(C(=O)Nc2cccc(C(F)(F)F)c2)no1 [UTL-5e] | 0.2 | – | – | –
7 | Cc1cc(C(=O)Nc2ccc(C(F)(F)F)cc2)no1 [UTL-5f] | 0.17 | – | – | –
8 | Cc1cc(C(=O)Nc2ccc(Cl)cc2Cl)no1 [UTL-5g] | 0.18 | >2,000 mg/Kg | agitation | Survival at 2,000 mg/Kg (Male ICR mice): all mice were alive
9 | COc1ccc(NC(=O)c2cc(C)on2)cc1 [UTL-5h] | 0.35 | – | – | –
10 | COc1cc(NC(=O)c2cc(C)on2)cc(OC)c1OC [UTL-5i] | 1.18 | – | – | –
11 | Cc1cc(C(=O)Nc2ccc(C(=O)O)cc2)no1 [UTL-5j] | 0.19 | >2,000 mg/Kg | agitation | Survival at 2,000 mg/Kg (Male ICR mice): all mice were alive
12 | Cc1cc(C(=O)Nc2ccc(F)cc2)no1 [UTL-5k] | > 1000 | – | – | –
13 | CCOC(=O)CC[C@H](NC(=O)c1ccc(NC(=O)c2cc(C)on2)cc1)C(=O)OCC [UTL-5l] | 0.16 | – | – | –
